Like-named read-outs stand apart in the source and are kept apart here.
What was measured:
[1] = lipid content 20% by weight, room temperature
[2] = lipid content 20%, room temperature
[3] = Ester mixture A (glycerol triesters of caprylic acid 70% and capric acid 30%)
[4] = Ester mixture B (propylene glycol diesters of caprylic acid 75% and capric acid 25%)
[5] = Ester mixture C (75% glycerol triesters, 12.5% diesters, 12.5% monoesters of caprylic/capric acid)
[6] = Ester mixture D (50% soy bean oil and 50% glycerol triesters of caprylic acid 70% and capric acid 30%)

Question: Which “Solubility of the medicament in the emulsion” value (from here on “Solubility of the medicament”) [1, 3] does the source give for CC(c1ccc(Cl)c(Cl)c1)N1N=C(N)CC1=O (stereo not shown) [Muzolimine] here?
Answer: 0.06 % (W/W)

Question: And the “Solubility of the medicament” value [1, 4]?
Answer: 0.06 % (W/W)

Question: And the “Solubility of the medicament” value [1, 5]?
Answer: 0.32 % (W/W)

Question: What about the “Solubility of the medicament” value [1, 6] of the same compound?
Answer: 0.02 % (W/W)

Question: And the “Solubility of the medicament” value ([1]; Soy bean oil)?
Answer: 0.01 % (W/W)

Question: With COCCOC(=O)C1=C(C)NC(C)=C(C(=O)OC(C)C)C1c1cccc([N+](=O)[O-])c1 (stereo not shown) [Nimodipine] as the compound, how does the “Solubility of nimodipine in soy bean oil emulsion” value (“Solubility of nimodipine” below) ([2]; benzyl alcohol 0% W/W) read?
Answer: 0.04%

Question: What about the “Solubility of nimodipine” value ([2]; benzyl alcohol 2% W/W) of the same compound?
Answer: 0.08%

Question: What about the “Solubility of nimodipine” value ([2]; benzyl alcohol 4% W/W) of the same compound?
Answer: 0.16%

Question: What about the “Solubility of nimodipine” value ([2]; benzyl alcohol 5% W/W) of the same compound?
Answer: 0.18%

Question: And the “Solubility of the medicament” value [1, 3]?
Answer: 0.16 % (W/W)

Question: What about the “Solubility of the medicament” value [1, 4] of the same compound?
Answer: 0.26 % (W/W)

Question: What about the “Solubility of the medicament” value [1, 5] of the same compound?
Answer: 0.50 % (W/W)

Question: What about the “Solubility of the medicament” value [1, 6] of the same compound?
Answer: 0.08 % (W/W)

Question: And the “Solubility of the medicament” value ([1]; Soy bean oil)?
Answer: 0.04 % (W/W)

Question: For COC(=O)C1=C(C)NC(C)=C(C(=O)OCC(C)C)C1c1ccccc1[N+](=O)[O-] (stereo not shown) [Nisoldipine], which “Solubility of the medicament” value [1, 3] is on record?
Answer: 0.14 % (W/W)

Question: And the “Solubility of the medicament” value [1, 4]?
Answer: 0.18 % (W/W)

Question: What about the “Solubility of the medicament” value [1, 5] of the same compound?
Answer: 0.20 % (W/W)

Question: What about the “Solubility of the medicament” value [1, 6] of the same compound?
Answer: 0.08 % (W/W)

Question: And the “Solubility of the medicament” value ([1]; Soy bean oil)?
Answer: 0.04 % (W/W)

Question: What does the source list for CCOC(=O)C1=C(C)NC(C)=C(C(=O)OC)C1c1cccc([N+](=O)[O-])c1 (stereo not shown) [Nitrendipine]?
Answer: Solubility of the medicament in the emulsion [1, 3]: 0.08 % (W/W); Solubility of the medicament in the emulsion [1, 4]: 0.12 % (W/W); Solubility of the medicament in the emulsion [1, 5]: 0.14 % (W/W); Solubility of the medicament in the emulsion [1, 6]: 0.05 % (W/W); Solubility of the medicament in the emulsion ([1]; Soy bean oil): 0.03 % (W/W)

Question: Which “Solubility of the medicament” value ([1]; Soy bean oil) does the source give for CCCOC(=O)Cc1ccc(OCC(=O)N(CC)CC)c(OC)c1 [Propanidide] here?
Answer: 2.80 % (W/W)

Reference: US4711902A, “Medicament formulation” (Bayer Aktiengesellschaft, priority 1983, dated 1987)
